ChEMBL document CHEMBL5050844 (2019)

What was measured:
[1] = Induction of anti-CD3/CD28 antibodies-stimulated human T cell activation at 1 uM assessed fold increase in IL-2 secretion measured by ELISA assay; type: functional, T cell line
[2] = Induction of anti-CD3/CD28 antibodies-stimulated human T cell activation at 1 uM assessed fold increase in CD25 expression measured by ELISA assay; type: functional, T cell line
[3] = Induction of anti-CD3/CD28 antibodies-stimulated human T cell activation at 4 uM assessed fold increase in IL-2 secretion measured by ELISA assay; type: functional, T cell line
[4] = Induction of anti-CD3 antibodies-stimulated human T cell activation at 8 uM assessed fold increase in CD25 expression measured by ELISA assay; type: functional, T cell line; further: reference of the scale not given here
[5] = Induction of anti-CD3 antibodies-stimulated human T cell activation at 8 uM assessed fold increase in IL-2 secretion measured by ELISA assay; type: functional, T cell line; further: reference of the scale not given here
[6] = Induction of anti-CD3/CD28 antibodies-stimulated human T cell activation at 4 uM assessed fold increase in CD25 expression measured by ELISA assay; type: functional, T cell line
[7] = Induction of anti-CD3 antibodies-stimulated human T cell activation at 1 uM assessed fold increase in CD25 expression measured by ELISA assay; type: functional, T cell line; further: reference of the scale not given here
[8] = molecular target: E3 ubiquitin-protein ligase CBL-B (Homo sapiens, UniProt Q13191); assay: Inhibition of N-terminal Avi-tagged human CBL-B (36 to 427 residues) incubated with 60 nM Src kinase for 1.5 hrs followed by incubation with fluorescently labeled UbcH5B-Ub for 1 hr and measured by TR-FRET assay; type: single protein
E3 ubiquitin-protein ligase CBL-B, sequence (Q13191 whole entry, the tested form may be a part): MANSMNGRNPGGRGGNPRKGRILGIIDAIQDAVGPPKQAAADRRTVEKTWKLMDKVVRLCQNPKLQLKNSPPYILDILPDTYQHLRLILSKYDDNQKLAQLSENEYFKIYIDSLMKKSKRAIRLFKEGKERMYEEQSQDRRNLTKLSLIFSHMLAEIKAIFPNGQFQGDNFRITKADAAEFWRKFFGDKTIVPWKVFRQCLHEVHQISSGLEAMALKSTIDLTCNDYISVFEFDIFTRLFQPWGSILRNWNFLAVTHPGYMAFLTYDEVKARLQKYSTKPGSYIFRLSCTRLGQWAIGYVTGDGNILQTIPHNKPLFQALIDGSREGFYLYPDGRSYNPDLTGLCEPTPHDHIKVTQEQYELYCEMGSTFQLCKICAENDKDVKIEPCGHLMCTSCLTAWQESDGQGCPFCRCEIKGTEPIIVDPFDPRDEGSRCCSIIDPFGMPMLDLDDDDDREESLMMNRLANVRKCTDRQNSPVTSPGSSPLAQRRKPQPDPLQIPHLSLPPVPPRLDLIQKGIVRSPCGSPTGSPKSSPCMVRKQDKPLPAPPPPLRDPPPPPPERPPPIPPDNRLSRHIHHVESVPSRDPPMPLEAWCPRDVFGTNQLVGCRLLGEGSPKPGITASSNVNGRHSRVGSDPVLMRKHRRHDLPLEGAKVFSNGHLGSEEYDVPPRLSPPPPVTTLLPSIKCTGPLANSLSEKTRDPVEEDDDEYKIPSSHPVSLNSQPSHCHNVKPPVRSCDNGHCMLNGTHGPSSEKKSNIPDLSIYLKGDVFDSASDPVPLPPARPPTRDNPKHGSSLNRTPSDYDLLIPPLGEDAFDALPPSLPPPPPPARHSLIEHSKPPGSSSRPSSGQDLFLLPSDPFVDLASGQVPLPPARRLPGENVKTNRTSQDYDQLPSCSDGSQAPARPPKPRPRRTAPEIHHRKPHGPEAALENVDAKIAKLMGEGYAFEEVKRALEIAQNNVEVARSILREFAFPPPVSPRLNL

[9] = Induction of anti-CD3/CD28 antibodies-stimulated human T cell activation at 0.3 uM assessed fold increase in CD25 expression measured by ELISA assay; type: functional, T cell line
[10] = Induction of anti-CD3 antibodies-stimulated human T cell activation at 1 uM assessed fold increase in IL-2 secretion measured by ELISA assay; type: functional, T cell line; further: reference of the scale not given here
[11] = Induction of anti-CD3/CD28 antibodies-stimulated human T cell activation at 0.3 uM assessed fold increase in IL-2 secretion measured by ELISA assay; type: functional, T cell line

Compound	fold change (FC) [1]	fold change (FC) [2]	fold change (FC) [3]	fold change (FC) [4]	fold change (FC) [5]	fold change (FC) [6]	fold change (FC) [7]	IC50 [8] [nM]	fold change (FC) [9]	fold change (FC) [10]	fold change (FC) [11]
C[C@H](Cc1nncn1C)c1cc(OCC(F)F)nc(N2Cc3c(cccc3C(F)(F)F)C2=O)c1	2.51	1.01	>=7.5	>=1.001	>=0.201	1.31	0.801	< 100	1.01	0.151	2.51
C[C@H](c1cc2c(c(C(F)(F)F)c1)CN(c1cccc([C@@](C)(F)C(F)(F)c3nncn3C)c1)C2=O)N1CC[C@H](F)C1	>=7.5	1.31	>=7.5	>=1.001	>=0.201	1.51	>=1.001	< 100	1.01	>=0.201	2.51
Cn1cnnc1[C@@H]1C[C@@H]1c1cccc(N2Cc3c(cc(CN4CC[C@H](F)C4)cc3C(F)(F)F)C2=O)c1	>=7.5	1.31	>=7.5	>=1.001	>=0.201	1.51	>=1.001	< 100	1.31	>=0.201	2.51
Cc1cc(C(=O)Nc2cccc(C3(Cc4nncn4C)COC3)c2)nc(C2CCC2)n1	5	1.01	>=7.5	>=1.001	>=0.201	1.31	0.801	< 100	1.01	0.151	1.01
C[C@H](Cc1nncn1C)c1cccc(NC(=O)c2cc3cc(N4CCN(C)C(=O)C4)ccc3cn2)c1.O=C(O)C(F)(F)F	5	1.31	>=7.5	>=1.001	>=0.201	1.51	<=0.6	< 100	1.31	>=0.201	5
CC(O)c1cc2c(c(C(F)(F)F)c1)CN(c1cccc([C@@](C)(F)C(F)(F)c3nncn3C)c1)C2=O (stereo partly drawn)	1.01	1.01	5	>=1.001	>=0.201	1.01	0.801	< 100	1.01	0.051	1.01
C[C@H](Cc1nncn1C)c1cccc(N2Cc3c(cc(C(=O)N4CC(O)C4)cc3C3CC3)C2=O)c1	1.01	1.01	2.51	>=1.001	>=0.201	1.01	0.801	< 100	1.01	0.151	1.01
C[C@H](Cc1nncn1C)c1cccc(N2Cc3c(cc(C4CC4)cc3C(F)(F)F)C2=O)c1	1.01	1.01	2.51	>=1.001	>=0.201	1.31	0.801	< 100	1.01	>=0.201	1.01
